Laboratory results as given in ChEMBL document CHEMBL2203035, “Synthesis and docking studies of novel antitumor benzimidazoles” (Bioorg Med Chem, 2012).
pIC50, pKi: −log10 of the molar value. One block for each compound: values may come before it.

Columns and labels:
[1] = test system: MCF7; assay: Downregulation of uPA protein expression in human MCF7 cell extract at 0.167 uM after 48 hrs by ELISA; assay type: functional
[2] = test system: Raji; assay: Inhibition of tumor promotion in human Raji cells assessed as TPA-induced Epstein-Barr virus early antigen activation at 100 mol ratio/TPA after 48 hrs by indirect immunofluorescence analysis relative to TPA alone; assay type: functional; set-up: scale not given: the % may be the effect or the level left
[3] = test system: MCF7; assay: Downregulation of uPA protein expression in human MCF7 cell extract at 0.084 ug/well after 48 hrs by ELISA (reference value: 1 1.4000 +/- 1.40 ng/ml)
[4] = biological target: Urokinase plasminogen activator surface receptor (Homo sapiens, UniProt Q03405); assay: Binding affinity to uPAR
[5] = test system: A549; assay: Downregulation of uPA protein expression in human A549 cell extract at 1.70 uM after 48 hrs by ELISA; assay type: functional
[6] = test system: MCF7; assay: Downregulation of uPA protein expression in human MCF7 cell extract at 0.67 uM after 48 hrs by ELISA (reference value: 1 1.4000 +/- 1.40 ng/ml); assay type: functional
[7] = test system: A549; assay: Downregulation of uPA protein expression in human A549 cell extract at 0.85 uM after 48 hrs by ELISA; assay type: functional
[8] = test system: Raji; assay: Inhibition of tumor promotion in human Raji cells assessed as TPA-induced Epstein-Barr virus early antigen activation at 10 mol ratio/TPA after 48 hrs by indirect immunofluorescence analysis relative to TPA alone; assay type: functional; set-up: scale not given: the % may be the effect or the level left
[9] = test system: A549; assay: Downregulation of uPA protein expression in human A549 cell extract at 0.85 uM after 48 hrs by ELISA (reference value: 11.0000 +/-1.60 ng/ml); assay type: functional
[10] = test system: A549; assay: Cytotoxicity against human A549 cells after 72 hrs by alamar blue assay; assay type: functional, cell-based; details: A549, 72 h
[11] = test system: MCF7; assay: Downregulation of uPA protein expression in human MCF7 cell extract at 0.084 uM after 48 hrs by ELISA; assay type: functional
[12] = test system: MCF7; assay: Downregulation of uPA protein expression in human MCF7 cell extract at 0.167 ug/well after 48 hrs by ELISA (reference value: 1 1.4000 +/- 1.40 ng/ml)
[13] = test system: A549; assay: Downregulation of uPA protein expression in human A549 cell extract at 0.425 uM after 48 hrs by ELISA; assay type: functional
[14] = test system: A549; assay: Downregulation of uPA protein expression in human A549 cell extract at 0.425 uM after 48 hrs by ELISA (reference value: 11.0000 +/-1.60 ng/ml); assay type: functional
[15] = test system: MCF7; assay: Downregulation of uPA protein expression in human MCF7 cell extract at 0.335 ug/well after 48 hrs by ELISA (reference value: 1 1.4000 +/- 1.40 ng/ml)
[16] = test system: A549; assay: Downregulation of uPA protein expression in human A549 cell extract at 3.40 uM after 48 hrs by ELISA; assay type: functional
[17] = test system: Raji; assay: Inhibition of tumor promotion in human Raji cells assessed as TPA-induced Epstein-Barr virus early antigen activation at 1000 mol ratio/TPA after 48 hrs by indirect immunofluorescence analysis relative to TPA alone; assay type: functional; set-up: scale not given: the % may be the effect or the level left
[18] = test system: MCF7; assay: Downregulation of uPA protein expression in human MCF7 cell extract at 0.67 uM after 48 hrs by ELISA; assay type: functional
[19] = test system: Raji; assay: Inhibition of tumor promotion in human Raji cells assessed as TPA-induced Epstein-Barr virus early antigen activation at 500 mol ratio/TPA after 48 hrs by indirect immunofluorescence analysis relative to TPA alone; assay type: functional; set-up: scale not given: the % may be the effect or the level left
[20] = test system: A549; assay: Downregulation of uPA protein expression in human A549 cell extract at 1.70 uM after 48 hrs by ELISA (reference value: 11.0000 +/-1.60 ng/ml); assay type: functional
[21] = test system: A549; assay: Downregulation of uPA protein expression in human A549 cell extract at 3.40 uM after 48 hrs by ELISA (reference value: 11.0000 +/-1.60 ng/ml); assay type: functional
[22] = test system: MCF7; assay: Downregulation of uPA protein expression in human MCF7 cell extract at 0.335 uM after 48 hrs by ELISA; assay type: functional
[23] = test system: MCF7; assay: cells; details: Homo sapiens, MCF7, 48 h
Description: Cytotoxicity against human MCF7 cells after 48 hrs by sulforhodamine B assay

[24] = test system: A549; assay: Downregulation of uPA protein expression in human A549 cell extract at 12 uM after 48 hrs by ELISA (reference value: 11.00 +/-1.60 ng/ml); assay type: functional
[25] = test system: A549; assay: Downregulation of uPA protein expression in human A549 cell extract at 3 uM after 48 hrs by ELISA (reference value: 11.00 +/-1.60 ng/ml); assay type: functional
[26] = test system: MCF7; assay: Downregulation of uPA protein expression in human MCF7 cell extract at 0.50 uM after 48 hrs by ELISA (reference value: 1 1.4000 +/- 1.40 ng/ml); assay type: functional
[27] = test system: MCF7; assay: Downregulation of uPA protein expression in human MCF7 cell extract at 0.0625 ug/well after 48 hrs by ELISA (reference value: 1 1.4000 +/- 1.40 ng/ml)
[28] = test system: MCF7; assay: Downregulation of uPA protein expression in human MCF7 cell extract at 0.125 uM after 48 hrs by ELISA; assay type: functional
[29] = test system: MCF7; assay: Downregulation of uPA protein expression in human MCF7 cell extract at 0.50 uM after 48 hrs by ELISA; assay type: functional
[30] = test system: MCF7; assay: Downregulation of uPA protein expression in human MCF7 cell extract at 0.125 uM after 48 hrs by ELISA (reference value: 1 1.4000 +/- 1.40 ng/ml); assay type: functional
[31] = test system: MCF7; assay: Downregulation of uPA protein expression in human MCF7 cell extract at 0.25 uM after 48 hrs by ELISA; assay type: functional
[32] = test system: A549; assay: Downregulation of uPA protein expression in human A549 cell extract at 1.5 uM after 48 hrs by ELISA (reference value: 11.00 +/-1.60 ng/ml); assay type: functional
[33] = test system: A549; assay: Downregulation of uPA protein expression in human A549 cell extract at 6 uM after 48 hrs by ELISA (reference value: 11.00 +/-1.60 ng/ml); assay type: functional
[34] = test system: MCF7; assay: Downregulation of uPA protein expression in human MCF7 cell extract at 0.0625 uM after 48 hrs by ELISA; assay type: functional
[35] = test system: MCF7; assay: Downregulation of uPA protein expression in human MCF7 cell extract at 0.25 uM after 48 hrs by ELISA (reference value: 1 1.4000 +/- 1.40 ng/ml); assay type: functional

Sequence of Urokinase plasminogen activator surface receptor (Q03405 whole entry): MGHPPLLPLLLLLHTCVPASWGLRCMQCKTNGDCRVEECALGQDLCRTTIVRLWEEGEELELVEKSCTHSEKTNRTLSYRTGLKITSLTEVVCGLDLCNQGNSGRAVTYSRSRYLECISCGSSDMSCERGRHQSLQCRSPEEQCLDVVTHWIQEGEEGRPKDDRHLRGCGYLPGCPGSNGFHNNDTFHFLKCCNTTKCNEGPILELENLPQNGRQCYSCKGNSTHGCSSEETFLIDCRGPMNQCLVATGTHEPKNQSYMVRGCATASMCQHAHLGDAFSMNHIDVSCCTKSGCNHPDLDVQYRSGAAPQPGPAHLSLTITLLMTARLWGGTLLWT

- pKi [4]: 12.54
- IC50 [23]: 0.667 µg/well
Compound: C=CCn1c(CN2C3=Nc4ccccc4C(=O)NC3=Nc3ccccc32)nc2ccccc21
- Activity [1]: 33%
- Activity [2]: 77.9%
- Activity [3]: 8.8 ng/mL
- Activity [5]: 52%
- Activity [6]: 4.4 ng/mL
- Activity [7]: 44%
- Activity [8]: 100%
- Activity [9]: 6.2 ng/mL
- pIC50 [10]: 5.47
- Activity [11]: 23%
- Activity [12]: 7.7 ng/mL
- Activity [13]: 33%
- Activity [14]: 7.4 ng/mL
- Activity [15]: 7 ng/mL
- Activity [16]: 65%
- Activity [17]: 11.6%
- Activity [18]: 61%
- Activity [19]: 45.8%
- Activity [20]: 5.3 ng/mL
- Activity [21]: 3.8 ng/mL
- Activity [22]: 39%

- pKi [4]: 12.23
- IC50 [23]: 0.515 µg/well
Compound: N#Cc1cc(-c2ccccc2)n(Cc2nc3ccccc3[nH]2)c1N
- Activity [2]: 82%
- Activity [24]: 9.2 ng/mL
- Activity [25]: 9.7 ng/mL
- Activity [26]: 2.8 ng/mL
- Activity [8]: 100%
- Activity [27]: 7.4 ng/mL
- pIC50 [10]: 4.92
- Activity [28]: 50%
- Activity [29]: 75%
- Activity [30]: 5.7 ng/mL
- Activity [17]: 18%
- Activity [31]: 65%
- Activity [32]: 11.6 ng/mL
- Activity [33]: 9.8 ng/mL
- Activity [34]: 35%
- Activity [19]: 48.3%
- Activity [35]: 4 ng/mL
